# How the values were obtained:
# adenosine A2a receptors = biological target: T1, adenosine A2a receptors (Homo sapiens, UniProt P29274); assay: Adenosine agonism indirectly by way of gene expression (luciferase test), A2a cells; format: cell-based; details: percent of the maximum stimulation achieved by NECA
# T1 construct: expressed in transfected cells; host or cells: CHO (Chinese Hamster Ovary)
# Excerpt: (§1) Cells of the CHO (Chinese Hamster Ovary) permanent cell line are transfected stably with the cDNA for the adenosine receptor subtypes A1, A2a and A2b. The adenosine A1 receptors are coupled to the adenylate cyclase by way of Gi proteins, while the adenosine A2a and A2b receptors are coupled by way of Gs proteins. In correspondence with this, the formation of cAMP in the cell is inhibited or stimulated, respectively. After that, expression of the luciferase is modulated by way of a cAMP-dependent promoter. The luciferase test is optimized, with the aim of high sensitivity and reproducibility, low variance and good suitability for implementation on a robot system, by varying several test parameters, such as cell density, duration of the growth phase and the test incubation, forskolin concentration and medium composition. The following test protocol is used for pharmacologically characterizing cells and for the robot-assisted substance test screening:
# (§2) The stock cultures are grown, at 37° C. and under 5% CO2, in DMEM/F12 medium containing 10% FCS (foetal calf serum) and in each case split 1:10 after 2–3 days. The test cultures are seeded in 384-well plates at the rate of from 1 000 to 3 000 cells per well and grown at 37° C. for approx. 48 hours. […] After that, 35 μl of a solution which is composed of 50% lysis reagent (30 mM disodium hydrogenphosphate, 10% glycerol, 3% TritonX100, 25 mM TrisHCl, 2 mM dithiothreitol (DTT), pH 7.8) and 50% luciferase substrate solution (2.5 mM ATP, 0.5 mM luciferin, 0.1 mM coenzyme A, 10 mM tricine, 1.35 mM magnesium sulphate, 15 mM DTT, pH 7.8) are added to the test cultures, the plates are shaken for approx. 1 minute and the luciferase activity is measured using a camera system.
# (§3) The table gives the % values of the corresponding reference stimulus. The measured values for the A2a and A2b receptors are values in percent of the maximum stimulation achieved by NECA; the measured values for the A1 receptor are values in percent following direct prestimulation of the adenylate cyclase with 1μ molar forskolin (corresponds to the 100% value).
# [1] = Pharmacokinetic investigations, rat; format: in vivo, rats; details: plasma, po, 1 mg/kg p.o., read-out: Bioavailability following oral administration
# Method: (§4) Pharmacokinetic data were determined after administering various substances i.v. or p.o. as solutions to mice, rats and dogs. For this, blood samples were collected up to 24 hours after administration. The concentrations of the unaltered substance were determined by bioanalytical methods (HPLC or HPLC-MS) in the plasma samples which were obtained from the blood samples. Pharmacokinetic parameters were subsequently ascertained from the plasma concentration time courses which had been obtained in this way. The following Table 2 gives the bioavailability in the different species.
# [2] = Pharmacokinetic investigations, dog; format: in vivo, dogs; details: plasma, po, 1 mg/kg p.o., read-out: Bioavailability following oral administration
# Method: as §4
# adenosine A1 receptors = biological target: T2, adenosine A1 receptors (Homo sapiens, UniProt P30542); assay: Adenosine agonism indirectly by way of gene expression (luciferase test), A1 cells; format: cell-based; details: percent following prestimulation of adenylate cyclase with 1 μ molar forskolin (=100%), agonists give <100%
# T2 construct: expressed in transfected cells; host or cells: CHO (Chinese Hamster Ovary)
# T2 sequence (P30542 1-326): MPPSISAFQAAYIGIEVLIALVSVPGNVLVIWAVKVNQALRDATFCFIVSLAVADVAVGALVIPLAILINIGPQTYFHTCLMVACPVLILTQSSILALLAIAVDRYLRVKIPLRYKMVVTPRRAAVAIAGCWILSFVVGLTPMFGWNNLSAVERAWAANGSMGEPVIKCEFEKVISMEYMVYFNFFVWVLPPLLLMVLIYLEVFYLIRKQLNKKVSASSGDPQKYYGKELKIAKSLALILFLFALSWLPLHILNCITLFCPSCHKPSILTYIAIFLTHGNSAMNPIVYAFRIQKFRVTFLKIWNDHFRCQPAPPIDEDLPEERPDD
# Excerpt: as §1, §2, §3
# adenosine A2b receptors = biological target: T3, adenosine A2b receptors (Homo sapiens, UniProt P29275); assay: Adenosine agonism indirectly by way of gene expression (luciferase test), A2b cells; format: cell-based; details: percent of the maximum stimulation achieved by NECA
# T3 construct: expressed in transfected cells; host or cells: CHO (Chinese Hamster Ovary)
# T3 sequence (P29275 1-332): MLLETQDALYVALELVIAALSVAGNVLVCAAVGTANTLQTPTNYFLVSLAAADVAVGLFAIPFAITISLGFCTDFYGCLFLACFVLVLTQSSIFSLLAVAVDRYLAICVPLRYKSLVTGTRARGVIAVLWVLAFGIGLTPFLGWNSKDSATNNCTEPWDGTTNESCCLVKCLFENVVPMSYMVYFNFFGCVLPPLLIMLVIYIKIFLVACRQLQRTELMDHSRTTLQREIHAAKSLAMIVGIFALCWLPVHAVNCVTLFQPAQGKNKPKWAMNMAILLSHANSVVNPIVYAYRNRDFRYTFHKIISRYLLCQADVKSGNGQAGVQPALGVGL
# Excerpt: as §1, §2, §3
# [3] = Pharmacokinetic investigations, mouse; format: in vivo, mice; details: plasma, po, 1 mg/kg p.o., read-out: Bioavailability following oral administration
# Method: as §4
# T1 sequence (P29274 whole entry): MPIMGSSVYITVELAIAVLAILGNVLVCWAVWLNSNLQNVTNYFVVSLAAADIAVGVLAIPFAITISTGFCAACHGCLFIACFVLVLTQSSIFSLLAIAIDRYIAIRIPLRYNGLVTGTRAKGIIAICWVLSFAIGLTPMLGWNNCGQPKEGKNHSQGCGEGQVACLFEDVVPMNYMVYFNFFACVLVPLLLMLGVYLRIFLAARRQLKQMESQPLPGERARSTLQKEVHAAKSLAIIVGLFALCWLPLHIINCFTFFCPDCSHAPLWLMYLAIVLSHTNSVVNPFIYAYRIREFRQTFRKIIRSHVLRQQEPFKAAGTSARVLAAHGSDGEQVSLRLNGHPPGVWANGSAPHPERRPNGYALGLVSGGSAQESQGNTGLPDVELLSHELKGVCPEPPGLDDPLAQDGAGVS
smiles,measurement,setting,value
"CC(=O)Nc1ccc(-c2c(C#N)c(N)nc(SCc3ccccn3)c2C#N)cc1 [Example 1, N-(4-{2-Amino-3,5-dicyano-6-[(2-pyridinylmethyl)sulphanyl]-4-pyridinyl}-phenyl)acetamide]","Stimulation of adenosine receptors, A2a, % of the reference stimulus",adenosine A2a receptors; 0.3 nmol compound,1%
same,"Stimulation of adenosine receptors, A2a, % of the reference stimulus",adenosine A2a receptors; 1 nmol compound,24%
same,"Stimulation of adenosine receptors, A2a, % of the reference stimulus",adenosine A2a receptors; 10 nmol compound,57%
same,bioavailability,[1],4.6%
same,bioavailability,[2],48.2%
same,"Stimulation of adenosine receptors, A1, % of the reference stimulus",adenosine A1 receptors; 0.3 nmol compound,44%
same,"Stimulation of adenosine receptors, A1, % of the reference stimulus",adenosine A1 receptors; 1 nmol compound,9%
same,"Stimulation of adenosine receptors, A1, % of the reference stimulus",adenosine A1 receptors; 10 nmol compound,5%
same,"Stimulation of adenosine receptors, A2b, % of the reference stimulus",adenosine A2b receptors; 0.3 nmol compound,29%
same,"Stimulation of adenosine receptors, A2b, % of the reference stimulus",adenosine A2b receptors; 1 nmol compound,64%
same,"Stimulation of adenosine receptors, A2b, % of the reference stimulus",adenosine A2b receptors; 10 nmol compound,88%
same,bioavailability,[3],22.1%

# Source: patent US7045631B2, “Substituted 2-thio-3, 5-dicyano-4-phenyl-6-aminopyridines and their use as adenosine receptor-selective ligands” (Bayer Aktiengesellschaft, priority 2001, dated 2006)
